Source: patent EP3797781A1, “USE OF EC-7072 AND SYNERGIC COMPOSITIONS THEREOF IN TREATMENT OF CHRONIC LYMPHOCYTIC LEUKEMIA” (priority 2019, dated 2021)

Tests used:
[1] = system: primary fibroblasts from healthy donors; test: Cell death of primary fibroblasts by PI staining; assay type: cell-based, human; conditions: 200 nM, 24 hours; n = 4
Description: Effectiveness of EC-7072 against different B-cell malignancies was assessed by; • (i) incubating primary fibroblasts from healthy donors (n = 4) and HK-2 cells from healthy human adult kidney (n = 3) following treatment with MTA (200 nM) or EC-7072 (200 nM) for 24 hours. Cell death was evaluated by PI staining to obtain the percentages corresponding to the [PI^+] subset (Figure 5A) and the mean percentage of [PI^+] cells (Figure 5B); • (ii) treating MEC-1, GRANTA-519, Z-138, JVM-2, CA-46, Ramos, Raji and U266 cell lines (n = 3) following treatment with EC-7072 (500 nM) followed by incubation for 24 hours. Cell viability was assessed by DiOC6(3)/PI staining and normalized to control (DMSO) condition to obtain mean percentage of viable [DiOC6(3)^+] cells (Figure 5C).

[2] = system: isolated leukemia cells from patients with CLL; test: qPCR analysis of gene expression in isolated leukemia cells; assay type: cell-based, human; conditions: 6 hours
Description: Isolated leukemia cells from patients with CLL were incubated with EC-7072 (200 nM) or DMSO for 6 hours. Total RNA was extracted using RNeasy Mini Kit (Qiagen). 2 µg total RNA were used for cDNA synthesis using High-Capacity cDNA Reverse Transcription Kit (Applied Biosystems). Quantitative RT-PCR was performed using SYBR Green PCR Master Mix (Applied Biosystems) in a 7300 Real-Time PCR System and each sample was analyzed in triplicate. Table 1. Primers used in qPCR
Expression of BCR-related genes was analyzed by qPCR in isolated CLL leukemia cells (n = 6) exposed to 200 nM EC-7072 for 6 hours (Figure 6A).
Expression of relevant genes that regulate apoptosis in CLL was analyzed by qPCR in isolated leukemia cells from patients with CLL (n = 6) exposed to 200 nM EC-7072 for 6 hours, to obtain the mean relative expression to the control (DMSO) control condition (Figure 6D).
The dysregulation of BCL2 expression in primary CLL by EC-7072 was evaluated by: • (i) incubating isolated CLL cells (n = 6) from patients with CLL following treatment with EC-7072 (200 nM) for 6 hours and extracting total RNA. Relative expression of BLC2 was determined by qPCR to obtain the mean relative expression to the control (DMSO) condition (Figure 6F); • (ii) incubating isolated CLL cells (n = 6) following treatment with 200 nM EC-7072 for 12 and 18 hours. BCL2 levels were evaluated by intracellular flow cytometry (Figure 6G); • (iii) incubating isolated T cells (n = 3) from patients with CLL following treatment with EC-7072 (200 nM) for 6 hours and extracting total RNA. Relative expression of BLC2 was determined by qPCR to obtain the mean relative expression to the control (DMSO) condition (Figure 6H); • (iv) incubating PBMCs (Figure 6I) and isolated T cells (Figure 6J) from patients with CLL (n = 3) following treatment with 200 nM EC-7072 for 24 hours. T-cell death and apoptosis were assessed by DiOC6(3)/PI staining to obtain percentages of viable [DiOC6(3)^+] cells and the mean percentages of apoptotic [DiOC6(3)^low PI^-] and dead [PI^+] cells. […]

Structure (SMILES): CO[C@@H]([C@@H]1Cc2cc3cc(O[C@H]4C[C@@H](O[C@H]5C[C@@H](O)[C@H](O)[C@@H](C)O5)[C@H](O)[C@@H](C)O4)c(C)c(O)c3c(O)c2C(=O)[C@H]1O[C@H]1C[C@@H](O[C@H]2C[C@@H](O[C@H]3C[C@](C)(O)[C@H](O)[C@@H](C)O3)[C@@H](O)[C@@H](C)O2)[C@H](O)[C@@H](C)O1)[C@@H](O)C(C)=O [EC-7072, mithramycin SK]
- viability of primary human fibroblasts (PI^+ cells) [1]: did not markedly affect the viability
- expression of genes required for functional BCR signaling (CD79B, SYK, LYN, PIK3CD, PLCG2, CARD11) ([2]; 200 nM, RNA-seq, validated by qPCR (n = 6)): broad downregulation
- gene expression of BCL2 ([2]; 200 nM, isolated CLL cells (n = 6)): significantly downregulated
- expression of BCL2 upon BCR activation ([2]; EC-7072 200 nM in combination with α-IgM (10 µg/mL), n = 4): restore the expression of BCL2 to basal levels
